Where “and” joins values, the source holds several entries; their conditions need not be identical. Identical values can stand only once. Entries after “also recorded” stand apart in the source; their conditions may differ.

For assay [1], the system named is wildtype E. coli. The assay can be described thus: Colanic acid measurement (fucose quantification) in wildtype E. coli culture medium. Type of assay: cell-based. As to the method: (§1) For colanic acid quantification, E. coli Keio mutants and the parental strain BW25113 were cultured overnight at 37° C. in M9 minimum medium [PMID: 28436966]. Bacteria were then removed by centrifugation and filtered for colanic acid measurement.
(§2) The desired bacterial strain was first inoculated and cultured in M9 minimum medium overnight at 37° C. to obtain the seeding culture. The OD 600 was measured, and the seeding bacteria were diluted to OD600=0.02 in M9 minimum medium for another 16 hours. After the incubation, bacterial cultures were collected in 50 mL tubes, spun down at 4,000 g at 4° C. for 30 min, filtered, and 25 mL of supernatant was collected per 50 ml conical tube. Ice-cold 100% ethanol (EtOH) was added to make a final 50% EtOH solution for precipitation, and the mixture was kept at 4° C. overnight. Once precipitation occurred, the liquid was carefully removed after centrifugation at 4,000 g at 4° C. for 50 min. The pellet was washed once with cold 80% EtOH and then air-dried in a hood. The pellet from every 50 mL culture was resuspended in 500 μL distilled H2O. The solution was sonicated for 60 minutes at 37° C., followed by centrifugation at 4000 g at 4° C. for 10 minutes. A 200 μL sample was mixed with 30 μL hydrochloric acid (320331-500 mL, Sigma-Aldrich) and boiled for 2 hours. Subsequently, 60 μL 5M NaOH and 150 μL NaHCO3/NaOH buffer were added to reach a pH of 6-8, calibrated by 1M HCl or NaOH solutions. The fucose quantification assay was then carried out using a K-FUCOSE kit (Megazyme) according to the manufacturer's protocol.
Next, colanic acid in the bacteria culture medium was quantified via monosaccharide-fucose-from acid-hydrolyzed polysaccharide precipitates. […] Calculations were performed to determine the equivalent dosage by weight in a mammalian subject. Briefly, a typical mouse consumes 5-10 ml of water per day and weighs between 30-40 g. Using the 1.8 μg/mL concentration, a lower bound of 0.225 mg/kg (0.0018 mg/mL×5 ml[…]0.04 kg) and a higher bound of 0.6 mg/kg (0.0018 mg/mL×10 ml÷0.03 kg) were identified. […] In wild-type bacteria treated with cephaloridine and Alon E. coli mutants colanic acid production increased during the exponential growth phase and remained elevated in the stationary phase (FIG. 1D).

Assay [2] deals with E. coli. The assay can be described thus: Bacterial growth under low-dose cephaloridine. Type of assay: cell-based. The settings on record: low-dose cephaloridine vs vehicle-treated E. coli.
Assay [3] relates to cps promoter. Description: cps G-R reporter bacteria imaging in vitro (GFP-to-RFP ratio). Type of assay: cell-based, E. coli. To be noted: low-dose cephaloridine, cultured at 37° C. On the procedure:
For high-resolution imaging, rph1 ilvG rfb-50 attL (Psyn135::mcherry <FRT>) attHKPR218 (cps G-R reporter strain), a genetically modified strain derived from MG1655 (genotype rph1 ilvG rfb-50), was generated. pPR218, integrated at the HK site, encodes Pcps::sfGFP and chloramphenicol resistance.
In vitro imaging: The cps G-R reporter strain was cultured in M9 minimal medium. Bacteria culture was harvested at an OD600 of 0.6. For bacteria imaging, 1 μL of the culture was loaded onto a 1% low-melt agarose pad made with M9 medium [PMID: 23680982].
MG1655, a human-derived commensal K12 strain, was treated with a low dose of cephaloridine at 37° C., which induced colanic acid production (FIG. 3A). […] To determine whether cephaloridine activates cps expression in a commensal bacterium in a mammalian host, MG1655 was engineered as shown in FIG. 3C to express GFP under the control of the cps promoter and to constitutively express RFP under a synthetic promoter syn135, resulting in the cps G-R reporter strain. […] The luminal content of mice ileum was harvested after 3 hours of cephaloridine administration and were imaged for fluorescence. […]

The subject of assay [4] is E. coli deletion mutants. The assay can be described thus: Colanic acid measurement in E. coli deletion mutants. Type of assay: cell-based. To be noted: low-dose cephaloridine. On the procedure:
as §1, §2
The molecular mechanism behind the induction of colanic acid by low-dose cephaloridine was investigated. It was suspected that regulation of the cps operon was centered on the well-known RCS two-component system. Canonically, the RcsC sensor histidine kinase situated in the inner membrane autophosphorylates in response to environmental cues, then the RcsD phosphotransferase transmits the phosphoryl group to the cytosolic response regulator RcsB, which functions as a transcription factor to up-regulate the cps operon, with RcsA interacting with RcsB to enhance its binding with the promoter, thereby stimulating transcriptional activation (FIG. 4A). To assess the necessity of the RCS system in colanic acid induction by low-dose cephaloridine, the E. coli deletion mutants of rcsA, rcsB, rcsC, and rcsD were treated with cephaloridine and colanic acid production was measured in their respective culture mediums.
Considering β-lactam antibiotics show preferential affinities to various penicillin-binding proteins (PBPs) [PMID: 25733506] [PMID: 1103132], the role of these inner membrane proteins in colanic acid induction upon low-dose cephaloridine treatment was determined. […] (FIG. 5A).
To investigate potential mediation of colanic acid induction by these kinases, E. coli deletion mutants of btsS, glrK, and zraS were treated with low-dose cephaloridine and colanic acid levels in their respective culture mediums were measured. Due to slow growth in the M9 culture medium, the rstB deletion mutant could not be evaluated.

For the compound `O=C(Cc1cccs1)N[C@@H]1C(=O)N2C(C(=O)[O-])=C(C[n+]3ccccc3)CS[C@H]12` [cephaloridine], the “colanic acid production vs untreated wildtype control” value in assay [1] (cephaloridine 1.8 μg/mL, 37° C.) turned out to be 6 fold. Further, the “optimal concentration for inducing colanic acid biosynthesis” value in assay [1] (range of doses below MIC) is 1.8 μg/mL and 4.3 μM. Moreover, the “effect on bacterial growth” value in assay [2] was “did not hinder bacteria growth; also recorded: does not alter bacterial growth”. The “increase in GFP-to-RFP intensity ratio” value in assay [3] is 20%. Also, the “amount of colanic acid vs treated wild-type strain” value in assay [4] (DacB deletion mutant (PBP4)) is listed as “even greater amount of colanic acid than the wild-type strain”. Also, the “induction of colanic acid” value in assay [4] (DacB deletion mutant (PBP4)) is on record as “did induce colanic acid production”; in assay [4] (mrcA deletion mutant (PBP1a)), “failed to induce colanic acid”; in assay [4] (rcsA deletion mutant) it was “completely abolished the induction of colanic acid”; in assay [4] (rcsB deletion mutant), “completely abolished the induction of colanic acid”; in assay [4] (rcsC deletion mutant), “no impact on the induction of colanic acid”; in assay [4] (rcsD deletion mutant) it was “no impact on the induction of colanic acid”. Moreover, the “induction of colanic acid” value in assay [4] (zraS deletion mutant) is recorded as “suppressed the induction of colanic acid”.
